Measured values reported in PubChem BioAssay (NCI).
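Five compound concentrations were applied to cells in 96-well plates for 48 hours; endpoints were derived by simple linear interpolation of the resulting dose-response curve. GI50 = concentration required for 50% inhibition of growth. The concentration for full growth arrest is given as TGI.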 Residues, ends and D or L forms follow the SMILES beside them. *: point of attachment. Boc = CC(C)(C)OC(=O)*; OBn = c1ccc(CO*)cc1

Key:
Assay in all cases: NCI anticancer screen, dose series, 48 h; in the data active = GI50 below about 0.43 µM; inactive = the rest
[1] = test system: A498 renal
[2] = test system: A549 NSCLC
[3] = test system: ACHN renal
[4] = test system: CCRF-CEM leukemia
[5] = test system: COLO 205 colon
[6] = test system: DU-145 prostate
[7] = test system: EKVX NSCLC
[8] = test system: HCC-2998 colon
[9] = test system: HCT-116 colon
[10] = test system: HCT-15 colon
[11] = test system: HL-60(TB) leukemia
[12] = test system: HOP-62 NSCLC
[13] = test system: HS 578T breast
[14] = test system: HT29 colon
[15] = test system: IGROV1 ovarian
[16] = test system: K-562 leukemia
[17] = test system: KM12 colon
[18] = test system: LOX IMVI melanoma
[19] = test system: M14 melanoma
[20] = test system: MALME-3M melanoma
[21] = test system: MCF7 breast
[22] = test system: MDA-MB-231 breast
[23] = test system: MOLT-4 leukemia
[24] = test system: NCI-H226 lung
[25] = test system: NCI-H460 lung
[26] = test system: NCI-H522 lung
[27] = test system: NCI/ADR-RES ovarian
[28] = test system: OVCAR-4 ovarian
[29] = test system: OVCAR-5 ovarian
[30] = test system: OVCAR-8 ovarian
[31] = test system: PC-3 prostate
[32] = test system: RPMI-8226 leukemia
[33] = test system: RXF 393 renal
[34] = test system: SF-268 CNS
[35] = test system: SF-295 CNS
[36] = test system: SF-539 CNS
[37] = test system: SK-MEL-28 melanoma
[38] = test system: SK-MEL-5 melanoma
[39] = test system: SK-OV-3 ovarian
[40] = test system: SN12C renal
[41] = test system: SNB-75 CNS
[42] = test system: SR leukemia
[43] = test system: SW-620 colon
[44] = test system: T-47D breast
[45] = test system: TK-10 renal
[46] = test system: UACC-257 melanoma
[47] = test system: UACC-62 melanoma
[48] = test system: UO-31 renal
[49] = test system: SK-MEL-2 melanoma
[50] = test system: 786-0 renal
[51] = test system: BT-549 breast
[52] = test system: CAKI-1 renal
[53] = test system: HOP-92 NSCLC
[54] = test system: MDA-MB-435
[55] = test system: NCI-H23 lung
[56] = test system: OVCAR-3 ovarian
[57] = test system: SNB-19 CNS
[58] = test system: U251 CNS

CCCCCCCCCC[C@@H](O)[C@@H]1CC[C@@H]([C@@H]2CC[C@@H]([C@@H](O)CCCCCCCCCCC(O)CC3=CC(C)OC3=O)O2)O1 (stereo partly drawn)
6.84 µM: TGI [24]
6.45 µM: TGI [42]
> 10 µM: TGI [1] | TGI [2] | TGI [3] | TGI [4] | TGI [5] | TGI [6] | TGI [7] | TGI [8] | TGI [9] | TGI [10] | TGI [12] | TGI [13] | TGI [14] | TGI [15] | TGI [16] | TGI [17] | TGI [18] | TGI [19] | TGI [20] | TGI [21] | TGI [22] | TGI [23] | TGI [25] | TGI [26] | TGI [27] | TGI [28] | TGI [29] | TGI [30] | TGI [31] | TGI [32] | TGI [33] | TGI [34] | TGI [35] | TGI [36] | TGI [37] | TGI [39] | TGI [40] | TGI [41] | TGI [43] | TGI [44] | TGI [45] | TGI [46] | TGI [47] | TGI [48]
2.92 µM: TGI [38]
1.85 µM: TGI [11]

CC(C)C(NC(=O)OC(C)(C)C)C(=O)N1CCCC1C(=O)OCc1ccccc1 (stereo not drawn) (Boc-Val-Pro-OBn; configuration not given here)
inactive: GI50 [49] 46.3 µg/mL | GI50 [42] 90.6 µg/mL

OCC1OC(N2C=C(c3nc4ccccc4s3)C3C=CC=CC32)C(O)C1O (stereo not drawn)
> 50 µM: TGI [9] | TGI [11] | TGI [12] | TGI [13] | TGI [15] | TGI [16] | TGI [21] | TGI [23] | TGI [25] | TGI [26] | TGI [28] | TGI [34] | TGI [49] | TGI [39] | TGI [57] | TGI [42] | TGI [43] | TGI [48]
14.5 µM: TGI [38]
25.4 µM: TGI [7]
41.2 µM: TGI [2]
21.8 µM: TGI [32]
22 µM: TGI [52] | TGI [10]
22.4 µM: TGI [19]
20.5 µM: TGI [53]
42.4 µM: TGI [31]
25.2 µM: TGI [14]
26 µM: TGI [41]
19.5 µM: TGI [50]
30.2 µM: TGI [22]
24.5 µM: TGI [54]
43.6 µM: TGI [35]
27.8 µM: TGI [37]
25.5 µM: TGI [24]
36.9 µM: TGI [27]
36.6 µM: TGI [56]
17.8 µM: TGI [36]
17.7 µM: TGI [1]
inactive: GI50 [50] 8.68 µM | GI50 [1] 7.91 µM | GI50 [2] 12.7 µM | GI50 [3] 4.36 µM | GI50 [51] 9.55 µM | GI50 [52] 9.32 µM | GI50 [5] 14.1 µM | GI50 [6] 8.2 µM | GI50 [7] 6.27 µM | GI50 [9] 5.21 µM | GI50 [10] 7.92 µM | GI50 [11] 21 µM | GI50 [12] 16 µM | GI50 [53] 6.62 µM | GI50 [13] 14.2 µM | GI50 [14] 9.52 µM | GI50 [15] 14.8 µM | GI50 [16] 16.3 µM | GI50 [17] 8.95 µM | GI50 [18] 7.1 µM | GI50 [19] 9.6 µM | GI50 [21] 5.95 µM | GI50 [22] 11.3 µM | GI50 [54] 12 µM | GI50 [23] > 50 µM | GI50 [24] 8.81 µM | GI50 [55] 8.89 µM | GI50 [25] 9.91 µM | GI50 [26] > 50 µM | GI50 [27] 12.2 µM | GI50 [56] 13.4 µM | GI50 [28] 14.3 µM | GI50 [29] 11.3 µM | GI50 [30] 11.4 µM | GI50 [31] 8.59 µM | GI50 [32] 7.57 µM | GI50 [33] 10.6 µM | GI50 [34] 8.11 µM | GI50 [35] 13.1 µM | GI50 [36] 8.08 µM | GI50 [49] 29.7 µM | GI50 [37] 10.8 µM | GI50 [38] 6.1 µM | GI50 [39] 28.2 µM | GI50 [40] 11.1 µM | GI50 [57] 18.9 µM | GI50 [41] 7.8 µM | GI50 [42] 2.34 µM | GI50 [43] 9.82 µM | GI50 [45] 6.65 µM | GI50 [58] 6 µM | GI50 [46] 9.17 µM | GI50 [47] 8.92 µM | GI50 [48] 17.7 µM
49.6 µM: TGI [5]
21.9 µM: TGI [45]
28.7 µM: TGI [55]
25.9 µM: TGI [33]
12.4 µM: TGI [3]
25.8 µM: TGI [6]
23.4 µM: TGI [17]
22.1 µM: TGI [46]
29.5 µM: TGI [30]
14.8 µM: TGI [58]
34.3 µM: TGI [40]
19 µM: TGI [47]
27.5 µM: TGI [51]
18 µM: TGI [18]
32.7 µM: TGI [29]
